Structures can show the parent of a compound that is named as a salt. Peptide text beside a SMILES is read from it.
Assays:
[1] = biological target: neuropeptide S (NPS) receptor (Homo sapiens, UniProt Q6W5P4); conditions: NPSR
NPS receptor = conditions: read-out: Kd value of NPS receptor binding; reported previously; cited from earlier work
[2] = biological target: murine M1 muscarinic acetylcholine receptor (Rattus norvegicus, UniProt P08482); experiment: cell-based; conditions: IC50, IP-One Assay
Chain of murine M1 muscarinic acetylcholine receptor (P08482 whole entry): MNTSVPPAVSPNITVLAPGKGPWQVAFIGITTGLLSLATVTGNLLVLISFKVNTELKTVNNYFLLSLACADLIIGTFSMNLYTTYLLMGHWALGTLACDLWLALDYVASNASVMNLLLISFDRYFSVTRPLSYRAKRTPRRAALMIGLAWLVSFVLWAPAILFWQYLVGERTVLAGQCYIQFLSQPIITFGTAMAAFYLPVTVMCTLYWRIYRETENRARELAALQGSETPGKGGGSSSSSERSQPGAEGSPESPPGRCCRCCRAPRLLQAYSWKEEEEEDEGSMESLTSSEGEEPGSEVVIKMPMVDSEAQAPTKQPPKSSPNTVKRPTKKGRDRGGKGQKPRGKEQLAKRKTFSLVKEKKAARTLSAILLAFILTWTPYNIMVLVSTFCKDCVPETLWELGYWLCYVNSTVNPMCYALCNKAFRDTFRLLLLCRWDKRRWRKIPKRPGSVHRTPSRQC

[3] = biological target: NPS receptor (Homo sapiens) (UniProt Q6W5P4); conditions: cited from earlier work
Chain of NPS receptor (Homo sapiens) (Q6W5P4 whole entry): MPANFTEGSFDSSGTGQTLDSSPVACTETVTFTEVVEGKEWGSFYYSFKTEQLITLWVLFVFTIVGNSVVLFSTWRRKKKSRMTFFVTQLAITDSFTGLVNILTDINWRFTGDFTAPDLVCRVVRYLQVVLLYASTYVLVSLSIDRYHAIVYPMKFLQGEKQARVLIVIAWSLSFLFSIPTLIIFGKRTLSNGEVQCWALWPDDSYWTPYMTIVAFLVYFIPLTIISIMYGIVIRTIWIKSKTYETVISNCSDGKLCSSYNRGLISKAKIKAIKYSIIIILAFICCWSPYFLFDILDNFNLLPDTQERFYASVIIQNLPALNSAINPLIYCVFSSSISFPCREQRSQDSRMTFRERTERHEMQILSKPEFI

[4] = biological target: free fatty acid receptor 1 (FFAR1) (Homo sapiens, UniProt O14842)
Chain of free fatty acid receptor 1 (FFAR1) (O14842 whole entry, species assumed): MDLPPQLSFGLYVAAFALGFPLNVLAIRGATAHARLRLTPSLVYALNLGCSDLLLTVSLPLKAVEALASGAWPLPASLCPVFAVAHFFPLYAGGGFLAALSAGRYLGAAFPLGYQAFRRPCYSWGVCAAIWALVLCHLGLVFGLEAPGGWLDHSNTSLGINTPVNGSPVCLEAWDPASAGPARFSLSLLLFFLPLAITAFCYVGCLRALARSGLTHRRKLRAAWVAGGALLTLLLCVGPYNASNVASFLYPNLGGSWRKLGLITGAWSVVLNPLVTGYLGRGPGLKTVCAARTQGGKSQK

Chain of Neuropeptide S (P0C0P6 68-89): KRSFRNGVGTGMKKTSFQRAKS
Chain of neuropeptide S (NPS) receptor (Q6W5P4 whole entry): as the sequence (Q6W5P4 whole entry) above

Row | Compound | IC50 [2] | other results
1 | CSCC[C@H](NC(=O)CNC(=O)[C@@H](NC(=O)CNC(=O)[C@@H](NC(=O)CNC(=O)[C@H](CC(N)=O)NC(=O)[C@H](CCCNC(=N)N)NC(=O)[C@H](Cc1ccccc1)NC(=O)[C@@H](N)CO)C(C)C)[C@@H](C)O)C(=O)N[C@@H](CCCCN)C(=O)N[C@@H](CCCCN)C(=O)N[C@H](C(=O)N[C@@H](CO)C(=O)N[C@@H](Cc1ccccc1)C(=O)N[C@@H](CCC(N)=O)C(=O)N[C@@H](CCCNC(=N)N)C(=O)N[C@@H](C)C(=O)N[C@@H](CCCCN)C(=O)N[C@@H](CO)C(=O)O)[C@@H](C)O [NPS, neuropeptide S] (H-SFRNGVGTGMKKTSFQRAKS-OH) |  | Ratio b/a (EC50 IP-One / EC50 calcium) [1]: 1.9; Kd (NPS receptor): 0.33 nM
2 | CC(=O)O[C@H]1C[C@@H]2CC[C@@H]3[C@H](CC[C@@]4(C)[C@H]3C[C@H]([N+]3(C)CCCCC3)[C@@H]4OC(C)=O)[C@@]2(C)C[C@@H]1[N+]1(C)CCCCC1 [Pancuronium bromide] | 12600 nM | 
3 | CC(C)[N+](C)(CCOC(=O)C1c2ccccc2Oc2ccccc21)C(C)C [Propantheline bromide] | 1 nM | 
4 | CC[N+](CC)(CC)CCOc1ccc(/C=C/c2ccccc2)cc1 [MG 624] | 398 nM | 
5 | C[N+]1(C)[C@@H]2CC[C@H]1C[C@@H](OC(=O)C(CO)c1ccccc1)C2 (mixture of isomers) [Atropine methyl bromide] | 3 nM | 
6 | Cc1scc2c1N(C(=O)CN1CCN(C)CC1)c1ccccc1NC2=O [Telenzepine dihydrochloride] | 25 nM | 
7 | Neuropeptide S (from UniProt P0C0P6) |  | Kd [3]: 0.33 nM
8 | C[N+]1(C)[C@@H]2CC[C@H]1C[C@@H](OC(=O)C(CO)c1ccccc1)C2 (mixture of isomers) [Atropine methyl nitrate] | 1 nM | 
9 | O=C(O)CCc1ccc(NCc2cccc(Oc3ccccc3)c2)cc1 [GW9508] |  | Ratio b/a (EC50 IP-One / EC50 calcium) [4]: 1.1
10 | CN1[C@@H]2CC[C@H]1C[C@@H](OC(c1ccccc1)c1ccccc1N)C2 (some centres unmarked) [Aminobenztropine] | 3 nM | 
